According to US9782379B2, “Use of protectin DX for the stimulation of muscular IL-6 secretion” (Universite Laval, priority 2013, dated 2017):

Experiments:
lean C57BL/6J mice = assay: paired 6 h lipid infusion and 4 mU/kg hyperinsulinemic-euglycemic clamp; type: in vivo
Method: 14-week old male C57BL/6J mice from Jackson Labs were used for the first paired lipid infusion hyperinsulinemic-euglycemic clamp study. These mice were placed on a standard laboratory chow diet with free access to food and water and kept in a 12 h light 12 h dark cycle at the Laval University hospital research centre animal facility. Mice were randomly assigned to saline, lipid or lipid+PDX groups. Five days prior to the experiment, mice were anesthetized and PE-10 catheters (Harvard Apparatus, QC, Canada) were inserted into the left common carotid artery and the right jugular vein for blood sampling and infusions respectively. Mice were fasted for 5 h leading up to the protocol. Immediately prior to the start of the lipid infusion, PDX (1 ug) or an equal volume of vehicle was administered via the jugular catheter to each group. Mice were then infused for 6 h with saline (5ml·kg^−1·h^−1) or lipid (20% intralipid emulsion (Baxter, ON, Canada) 5ml·kg^−1·h^−1 with 20 IU·ml^−1 heparin (LEO pharma, ON, Canada)). 2.5h into the infusion PDX (1 ug) or vehicle was again administered to the appropriate groups and the HIE clamp was initiated as previously described ^8,27. The clamp protocol consisted of a 90 min tracer equilibration period followed by a 120 min experimental period. A 5-μCi bolus of [3-^3H]glucose was given at the start of the tracer equilibration period followed by a 0.05-μCi/min infusion for 90 min. Blood samples were drawn for the assessment of glycemia, insulin and glucose turnover levels. Following the 90 min tracer equilibration period the clamp began with a primed-continuous infusion of human insulin (16 mU/kg bolus followed by 4 mU·kg^−1·min^−1, Humulin R; Eli Lilly, Indianapolis, Ind.). The [3-^3H]glucose infusion was increased to 0.2 μCi/min for the remainder of the experiment. Euglycemia (6.0-7.0 mM) was maintained during clamps by infusing 20% dextrose as necessary. Blood samples were taken continuously to determine glucose specific activity as well as insulin concentrations. Mice received saline-washed erythrocytes from donor mice throughout the experimental period (5-6 μl·min-1) to prevent a fall of ≧5% hematocrit. HGP and Rd were determined using Mari's non-steady-state equations for a two-compartmental model^28.
Snap frozen gastrocnemius muscle and liver from mice were pulverized in liquid nitrogen then lysed overnight at 4° C. in the lysis buffer described for the C2C12 myotube experiments. Immunoblotting of myotube, macrophage, liver and muscle lysates was then performed as previously described^5. Briefly, 50 ug of protein was loaded onto a 7.5% acrylamide gel, subjected to SDS-PAGE then transferred onto nitrocellulose membranes. Membranes were then blocked and probed with the appropriate antibodies. Antibodies for p-Akt ser473, p-JNK thr183/tyr185, JNK, p-AMPK thr172, AMPK, p-STAT-3 ser727 and STAT-3 were obtained from Cell Signaling Technology (MA, USA). Antibodies for total Akt and iNOS were from Santa Cruz Biotechnology (CA, USA) and BD Transduction Laboratories™ (Canada) respectively.
RNA was extracted from C2C12 myotubes using an RNeasy® mini kit from QIAGEN. RNA from homogenized liver tissue was extracted using an RNeasy® fibrous tissue mini kit from QIAGEN. RNA was then reverse transcribed to cDNA using the high-capacity cDNA reverse transcription kit from applied biosystems. Real-time PCR for Ppargc1, Pck1, G6Pc, and GAPDH was then performed using Taqman assay on demand probes and primers from Applied Biosystems in a CFX96 real-time system from BIO-RAD. The relative expression of genes of interest was then determined by normalization to the housekeeping gene GAPDH using the comparative CT method for relative gene expression^30.
Chemokines and cytokines were quantified in macrophage media, or mouse plasma using the MILLIPLEX™ MAP mouse cytokine/chemokine kit (Millipore Corporation, MA, USA). Nitrite accumulation in media was determined by Greiss assay as previously described^25. […]

[1] = test system: genetically obese db/db mice; assay: 4 mU/kg hyperinsulinemic-isoglycemic clamp in db/db mice, acute PDX; type: in vivo
Method: The 4 mU/kg hyperinsulinemic-isoglycemic clamp study was performed in 10 week old db/db mice from the BKS.Cg-Dock7^m+/+Lepr^db/J strain at Jackson Labs. Mice were randomly assigned to vehicle or PDX treatment groups. In preparation for the clamps mice were catheterized as described for the lipid infusion study. Mice were administered 2 ug of PDX or an equal volume of vehicle i.v. at 4 h and also 90 minutes prior to the initiation of the insulin pump. Pre-clamp glycemia was taken immediately prior to the second PDX shot. The clamp began 90 minutes later with a primed-continuous infusion of human insulin (16 mU/kg bolus followed by 4 mU·kg^−1·min^−1, Humulin R; Eli Lilly, Indianapolis, Ind.). Glycemia was maintained as close as possible to individual fasting values by infusing 20% dextrose as necessary. Blood samples were taken continuously to determine glycemia as well as insulin concentrations. Mice received saline-washed erythrocytes from donor mice throughout the experimental period (5-6 μl·min-1) to prevent a fall of ≧5% hematocrit.
We further explored the therapeutic efficacy of PDX in genetically obese db/db mice, a well-established model of T2D. Here we tested the ability of PDX to rapidly alleviate insulin resistance using a 4 mU/kg hyperinsulinemic-isoglycemic clamp (see design in FIG. 1). In these experiments, db/db mice were treated with vehicle or PDX (2 μg i.v.) 240 and 90 minutes prior to the initiation of the clamp.

**Q.** How did the “phosphorylation of AMPK on Thr172 in muscle” value (lean C57BL/6J mice; P<0.05) turn out when CC/C=C\C[C@H](O)/C=C/C=C\C=C\[C@@H](O)C/C=C\C/C=C\CCC(=O)O [PDX, 10S,17S-dihydroxy-docosa-4Z,7Z,11E,13Z,15E,19Z-hexaeonic acid] was run?
**A.** robust phosphorylation

**Q.** What about the “phosphorylation of hepatic STAT-3 on Ser727” value (lean C57BL/6J mice; P<0.05) of the same molecule?
**A.** enhancing

**Q.** What about the pre-clamp glycemia (lean C57BL/6J mice; PDX 1 ug i.v. immediately prior to and 2.5 h into 6 h lipid infusion, vs saline and lipid-treated animals, P<0.01) of the same molecule?
**A.** significant lowering

**Q.** What about the peripheral insulin action (lean C57BL/6J mice; PDX 1 ug i.v. x2, lipid-infused) of the same molecule?
**A.** partial restoration

**Q.** And the “lipid-induced decline in whole-body insulin sensitivity (glucose infusion rate, GIR)” value (lean C57BL/6J mice; PDX 1 ug i.v. x2, lipid-infused, P<0.001)?
**A.** completely prevented the lipid-induced decline

**Q.** And the hepatic insulin action (lean C57BL/6J mice; PDX 1 ug i.v. x2, lipid-infused, significantly greater than saline-infused mice, P<0.05)?
**A.** markedly increased

**Q.** What about the adiponectin in plasma (lean C57BL/6J mice; both lipid-infused groups (with and without PDX)) of the same molecule?
**A.** similarly reduced levels

**Q.** What about the “IL-6 protein expression in skeletal muscle” value (lean C57BL/6J mice; expression profile compared with plasma IL-6) of the same molecule?
**A.** closely resembled that of plasma

**Q.** What about the “phosphorylation of Akt on Ser473” value (lean C57BL/6J mice; liver and skeletal muscle, immunoblot) of the same molecule?
**A.** confirmed the improved insulin action

**Q.** What about the “JNK activation (phosphorylation on Thr183/Tyr185)” value (lean C57BL/6J mice; liver, immunoblot) of the same molecule?
**A.** prevents

**Q.** What about the “liver IL-6 levels” value (lean C57BL/6J mice; mouse, in vivo) of the same molecule?
**A.** no significant effect

**Q.** And the “suppression of PGC-1α and PEPCK in liver (mRNA)” value (lean C57BL/6J mice; mouse, in vivo)?
**A.** enhancing

**Q.** What about the “lipid-mediated induction of iNOS” value (lean C57BL/6J mice; muscle and liver, immunoblot) of the same molecule?
**A.** represses

**Q.** And the “lipid-induced secretion of cytokines TNFα, IFNγ, IL-1β, IL-2 and IL-17” value (lean C57BL/6J mice; plasma, lipid-infused)?
**A.** strongly suppresses

**Q.** And the “lipid-induced secretion of proinflammatory chemokines CCL2/MCP-1 and CCL5/RANTES” value (lean C57BL/6J mice; plasma, lipid-infused)?
**A.** strongly suppresses

**Q.** What about the “increase in IL-6 beyond that induced by lipid infusion alone” value (lean C57BL/6J mice; plasma, P<0.001) of the same molecule?
**A.** ~7 fold

**Q.** What about the “suppression of G6Pase in liver (mRNA)” value (lean C57BL/6J mice; tendency, P=0.08) of the same molecule?
**A.** did not reach significance

**Q.** And the “lowering of pre-clamp glycemia” value ([1]; PDX 2 μg i.v. 240 and 90 minutes prior to clamp)?
**A.** did not reach statistical significance

**Q.** What about the “improvement of the GIR during the clamp” value ([1]; PDX 2 μg i.v. 240 and 90 minutes prior to clamp, P<0.01) of the same molecule?
**A.** 3.6 fold

**Q.** And the “PGC-1α, PEPCK, and G6Pase mRNA expression in liver” value ([1]; PDX 2 μg i.v. x2)?
**A.** enhanced suppression

**Q.** And the “IL-6 in the skeletal muscle and plasma” value ([1]; PDX 2 μg i.v. x2, P<0.01)?
**A.** increased

**Q.** What about the “adipose tissue chemokines or cytokines” value ([1]; epididymal adipose tissue) of the same molecule?
**A.** absence of any significant anti-inflammatory impact
